Measurements taken from patent US9249125B2, “Pyrazole derivatives as p38 MAP inhibitors” (RESPIVERT LIMITED, priority 2012, dated 2016).

Assays:
Syk = Syk (Homo sapiens (Human), UniProt P43405); test: Syk enzyme inhibition (FRET, Z-LYTE); assay type: biochemical
Outline: (§1)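 Z-LYTE FRET kinase assay: enzyme (3000 or 2000 ng/mL stock, respectively) preincubated 2 h at RT with compound (4–0.004 μg/mL stocks), then FRET peptide plus ATP (800 μM stock for c-Src, 60 μM for Syk) added for 1 h. Protease development 1 h; phosphorylation from coumarin/fluorescein emission ratio.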

[1] = test system: LPS-induced IL-8 release in d-U937 cells; test: LPS-induced IL-8 release in d-U937 cells; assay type: cell-based; details: Homo sapiens, dU937, read-out: LPS Induced Release of Cytokine in d-937 Cells IL-8 IC50
Outline: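 PMA-differentiated (100 ng/mL, 48–72 hr) U937 cells pre-incubated with compound 2 hr, then stimulated with LPS (0.1 μg/mL, E. coli O111:B4) for 4 hr. Supernatant TNFα and IL-8 measured by sandwich ELISA; inhibition versus vehicle control, REC50 from concentration-response curve.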

GSK3α = GSK3α (Homo sapiens (Human), UniProt P49840); test: GSK 3α enzyme inhibition (FRET, Z-LYTE); assay type: biochemical
Chain of GSK3α (P49840 whole entry): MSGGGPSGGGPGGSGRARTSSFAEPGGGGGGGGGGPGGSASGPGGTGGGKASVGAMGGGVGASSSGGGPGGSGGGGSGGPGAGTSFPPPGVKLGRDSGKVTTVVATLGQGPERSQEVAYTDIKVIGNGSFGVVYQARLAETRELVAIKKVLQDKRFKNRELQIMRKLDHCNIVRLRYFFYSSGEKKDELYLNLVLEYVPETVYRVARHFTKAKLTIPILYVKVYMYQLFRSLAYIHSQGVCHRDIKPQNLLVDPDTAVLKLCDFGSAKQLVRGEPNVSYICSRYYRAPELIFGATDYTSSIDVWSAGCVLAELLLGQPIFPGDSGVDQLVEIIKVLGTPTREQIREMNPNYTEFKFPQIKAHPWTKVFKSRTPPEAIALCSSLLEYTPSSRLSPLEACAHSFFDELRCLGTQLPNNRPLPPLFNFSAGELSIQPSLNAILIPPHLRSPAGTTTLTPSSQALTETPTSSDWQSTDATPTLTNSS
Outline: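 GSK3α (500 ng/mL stock) was preincubated 2 hr at RT with compound (4 to 0.004 μg/mL stocks), then FRET peptide (8 μM stock) and ATP (40 μM stock) added for 1 hr. Protease development for 1 hr cleaved unphosphorylated peptide; coumarin/fluorescein emission ratio reported phosphorylation.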

p38 MAPKα = p38 MAPKα (Homo sapiens (Human), UniProt Q16539); test: p38 MAPKα enzyme inhibition (FRET, Z-LYTE); assay type: biochemical
Chain of p38 MAPKα (Q16539 whole entry): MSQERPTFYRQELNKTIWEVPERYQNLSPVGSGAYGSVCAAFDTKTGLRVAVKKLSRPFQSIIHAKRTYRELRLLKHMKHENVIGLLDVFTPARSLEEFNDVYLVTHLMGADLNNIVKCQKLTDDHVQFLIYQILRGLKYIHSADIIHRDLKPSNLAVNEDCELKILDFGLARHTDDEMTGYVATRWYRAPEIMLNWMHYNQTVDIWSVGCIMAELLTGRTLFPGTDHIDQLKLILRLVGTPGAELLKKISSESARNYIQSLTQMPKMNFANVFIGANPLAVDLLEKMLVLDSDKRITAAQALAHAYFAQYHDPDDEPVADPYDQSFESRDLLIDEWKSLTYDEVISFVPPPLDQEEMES

[2] = test system: LPS-induced TNFα release in d-U937 cells; test: LPS-induced TNFα release in d-U937 cells; assay type: cell-based; details: Homo sapiens, dU937, relative to 10 μg/mL BIRB796, read-out: LPS Induced Release of Cytokine in d-937 Cells TNFα REC50
Outline: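 First, U937 monocytes undergo PMA treatment (100 ng/mL) for 48 to 72 hr to become macrophage-type. Next, compound at final concentrations is added for 2 hr, followed by LPS at 0.1 μg/mL for 4 hr. Finally, cytokines in the supernatant are quantified by ELISA against vehicle-treated cells.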

cSrc = cSrc (Homo sapiens (Human), UniProt P12931); test: c-Src enzyme inhibition (FRET, Z-LYTE); assay type: biochemical
Chain of cSrc (P12931 whole entry, looked up): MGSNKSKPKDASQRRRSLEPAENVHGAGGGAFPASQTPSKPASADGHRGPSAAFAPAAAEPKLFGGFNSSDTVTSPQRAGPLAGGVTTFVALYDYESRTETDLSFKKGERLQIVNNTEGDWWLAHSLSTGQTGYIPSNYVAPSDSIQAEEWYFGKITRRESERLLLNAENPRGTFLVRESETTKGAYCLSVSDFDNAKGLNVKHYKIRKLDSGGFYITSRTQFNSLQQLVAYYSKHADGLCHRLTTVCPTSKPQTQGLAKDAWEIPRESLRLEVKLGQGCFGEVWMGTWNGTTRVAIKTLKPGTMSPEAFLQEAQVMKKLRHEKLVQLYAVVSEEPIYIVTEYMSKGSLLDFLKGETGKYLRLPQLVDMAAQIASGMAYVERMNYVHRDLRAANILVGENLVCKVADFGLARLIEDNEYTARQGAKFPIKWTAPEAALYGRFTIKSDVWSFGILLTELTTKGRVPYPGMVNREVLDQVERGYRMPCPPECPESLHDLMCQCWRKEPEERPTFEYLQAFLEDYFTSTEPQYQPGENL
Outline: as §1

[3] = test system: Poly I:C-induced ICAM-1 expression in BEAS2B cells; test: Poly I:C-induced ICAM-1 expression in BEAS2B cells; assay type: cell-based; details: Homo sapiens, BEAS-2B, read-out: Poly IC induced ICAM1 in BEAS2B IC50
Outline: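 BEAS2B human bronchial epithelial cells pre-incubated with compound for 2 hr, then transfected with 1 μg/mL poly I:C plus Oligofectamine. At 18 hr, surface ICAM-1 measured by cell-based ELISA (HRP, OD450–655). Signal corrected for cell number by crystal violet OD595.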

SMILES | IC50 (Syk) [nM] | IC50 [1] [nM] | IC50 (GSK3α) [nM] | IC50 (p38 MAPKα) [nM] | EC50 [2] [nM] | IC50 (cSrc) [nM] | IC50 [3] [nM]
Cc1ccc(-n2nc(C(C)(C)C)cc2NC(=O)Nc2ccc(Oc3ccnc(Nc4ccc5[nH]ncc5c4)n3)c3ccccc23)cc1 [Example 22, 1-(4-((2-((1H-indazol-5-yl)amino)pyrimidin-4-yl)oxy)naphthalen-1-yl)-3-(3-(tert-butyl)-1-(p-tolyl)-1H-pyrazol-5-yl)urea] | 26 | 1.5 | > 16000 | 56 | 4.7 | 19 | 2.5
Cc1cc(Nc2nccc(Oc3ccc(NC(=O)Nc4cc(C(C)(C)C)nn4-c4cccc(OCCN5CCOCC5)c4)c4ccccc34)n2)cc2cn[nH]c12 [Example 56, 1-(3-(tert-butyl)-1-(3-(2-morpholinoethoxy)phenyl)-1H-pyrazol-5-yl)-3-(4-((2-((7-methyl-1H-indazol-5-yl)amino)pyrimidin-4-yl)oxy)naphthalen-1-yl)urea] | 3 | 11 | > 13300 | 46 | 4.9 | 2 | 11.9
Cc1ccc(-n2nc(C(C)(C)C)cc2NC(=O)Nc2ccc(Oc3ccnc(Nc4ccc5[nH]cnc5c4)n3)c3ccccc23)cc1 [Example 30, 1-(4-((2-((1H-benzo[d]imidazol-5-yl)amino)pyrimidin-4-yl)oxy)naphthalen-1-yl)-3-(3-(tert-butyl)-1-(p-tolyl)-1H-pyrazol-5-yl)urea] | > 1600 | 7.7 | 301 | 89 | 1.8 | 17 | 4.7
COc1ccc(-n2nc(C(C)(C)C)cc2NC(=O)Nc2ccc(Oc3ccnc(Nc4ccc5[nH]ncc5c4)n3)c3ccccc23)cc1 [Example 40, 1-(4-((2-((1H-indazol-5-yl)amino)pyrimidin-4-yl)oxy)naphthalen-1-yl)-3-(3-(tert-butyl)-1-(4-methoxyphenyl)-1H-pyrazol-5-yl)urea] | 24 | 7.2 | > 15600 | 68 | 1.5 | 8 | 2.4
Cc1ccc(-n2nc(C(C)(C)C)cc2NC(=O)Nc2ccc(Oc3ccnc(Nc4ccc5ncn(C)c5c4)n3)c3ccccc23)cc1 [Example 31, 1-(3-(tert-butyl)-1-(p-tolyl)-1H-pyrazol-5-yl)-3-(4-((2-((1-methyl-1H-benzo[d]imidazol-6-yl)amino)pyrimidin-4-yl)oxy)naphthalen-1-yl)urea] | 199 | 0.6 | 1610 | 33 | 0.3 | 6 | 2.3
Cc1ccc(-n2nc(C(C)(C)C)cc2NC(=O)Nc2ccc(Oc3ccnc(Nc4ccc5c(ccn5C)c4)n3)c3ccccc23)cc1 [Example 18, 1-(3-(tert-butyl)-1-(p-tolyl)-1H-pyrazol-5-yl)-3-(4-((2-((1-methyl-1H-indol-5-yl)amino)pyrimidin-4-yl)oxy)naphthalen-1-yl)urea] | 92 | 5.7 | 7080 | 1360 | 2.8 | 155 | 1.9
Cc1ccc(-n2nc(C(C)(C)C)cc2NC(=O)Nc2ccc(Oc3ccnc(Nc4ccc5cn[nH]c5c4)n3)c3ccccc23)cc1 [Example 24, 1-(4-((2-((1H-indazol-6-yl)amino)pyrimidin-4-yl)oxy)naphthalen-1-yl)-3-(3-(tert-butyl)-1-(p-tolyl)-1H-pyrazol-5-yl)urea] | 1090 | 16.9 | 2180 | 245 | 4.7 | 102 | 2.4
Cc1ccc(-n2nc(C(C)(C)C)cc2NC(=O)Nc2ccc(Oc3ccnc(Nc4ccc5c(c4)ncn5C)n3)c3ccccc23)cc1 [Example 4, 1-(3-(tert-Butyl)-1-(p-tolyl)-1H-pyrazol-5-yl)-3-(4-((2-((1-methyl-1H-benzo[d]imidazol-5-yl)amino)pyrimidin-4-yl)oxy)naphthalen-1-yl)urea] | 14 | 2 | 1370 | 19 | 2.4 | 4 | 2.4
Cc1ccc(-n2nc(C(C)(C)C)cc2NC(=O)Nc2ccc(Oc3ccnc(Nc4cccc5cc[nH]c45)n3)c3ccccc23)cc1 [Example 17] | 280 | 7.4 | > 16100 | 376 | 8.7 | 138 | 8.4
Cc1ccc(-n2nc(C(C)(C)C)cc2NC(=O)Nc2ccc(Oc3ccnc(Nc4ccc5ncsc5c4)n3)c3ccccc23)cc1 [Example 35, 1-(4-((2-(benzo[d]thiazol-6-ylamino)pyrimidin-4-yl)oxy)naphthalen-1-yl)-3-(3-(tert-butyl)-1-(p-tolyl)-1H-pyrazol-5-yl)urea] | > 1560 | 22.2 | > 15600 | 439 | 11 | 18 | 2.7
Cc1ccc(-n2nc(C(C)(C)C)cc2NC(=O)Nc2ccc(Oc3ccnc(Nc4ccc5scnc5c4)n3)c3ccccc23)cc1 [Example 34, 1-(4-((2-(benzo[d]thiazol-5-ylamino)pyrimidin-4-yl)oxy)naphthalen-1-yl)-3-(3-(tert-butyl)-1-(p-tolyl)-1H-pyrazol-5-yl)urea] | > 1560 | 3.4 | 1620 | 308 | 0.9 | 18 | 6.3
Cc1cc(Nc2nccc(Oc3ccc(NC(=O)Nc4cc(C(C)(C)C)nn4-c4ccc(=O)n(CCN5CCOCC5)c4)c4ccccc34)n2)cc2cn[nH]c12 [Example 89, 1-(3-(tert-butyl)-1-(1-(2-morpholinoethyl)-6-oxo-1,6-dihydropyridin-3-yl)-1H-pyrazol-5-yl)-3-(4-((2-((7-methyl-1H-indazol-5-yl)amino)pyrimidin-4-yl)oxy)naphthalen-1-yl)urea] | 3 | 28.8 | 2780 | 47 | 10.8 | < 1 | 17.1
CC(C)(C)c1cc(NC(=O)Nc2ccc(Oc3ccnc(Nc4ccc5[nH]ncc5c4)n3)c3ccccc23)n(-c2ccc(OCCN3CCOCC3)cc2)n1 [Example 12, 1-(4-((2-((1H-Indazol-5-yl)amino)pyrimidin-4-yl)oxy)naphthalen-1-yl)-3-(3-(tert-butyl)-1-(4-(2-morpholinoethoxy)phenyl)-1H-pyrazol-5-yl)urea] | 22 | 2 | 3890 | 77 | 1.6 | 13 | 21.6
Cc1ccc(-n2nc(C(C)(C)C)cc2NC(=O)Nc2ccc(Oc3cc(Nc4ccc5[nH]ncc5c4)ncn3)c3ccccc23)cc1 [Example 23, 1-(4-((6-((1H-indazol-5-yl)amino)pyrimidin-4-yl)oxy)naphthalen-1-yl)-3-(3-(tert-butyl)-1-(p-tolyl)-1H-pyrazol-5-yl)urea] | 57 | 2.7 | 12500 | 30 | 3.3 | 16 | 4.3
